Reference: the supplement of paper PMC10307832

How the values were obtained:
Assay in all cases: relative viability (nuclei count vs DMSO), 5 days (fraction); higher = more cells survive
[1] = compound: COC1=CC=C(C=C1)CN2C=CC3=C2C=C(C=C3)C(=O)NO + Cc1nc(NC(=O)N2CCC[C@H]2C(N)=O)sc1-c1ccnc(C(C)(C)C(F)(F)F)c1 [Alpelisib] (partner 2 µM)
Outline: (§1)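 Relative viability divides the nuclei count in treated wells by that in vehicle wells. Lung cancer cell lines were seeded in 1536-well plates, dosed by pin tool the next day, and fixed and stained after 5 days in one step with final 0.05% Triton X-100, 1% formaldehyde and 1 ug/ml Hoechst. Dosing was a single drug or a fixed anchor-drug dose plus five library-drug doses (not always all listed) in √10 steps, and values are medians of duplicate plates imaged at 4×.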

Veliparib + Foretinib = compound: C[C@]1(c2nc3c(C(N)=O)cccc3[nH]2)CCCN1 [Veliparib] + COc1cc2c(Oc3ccc(NC(=O)C4(C(=O)Nc5ccc(F)cc5)CC4)cc3F)ccnc2cc1OCCCN1CCOCC1 [Foretinib] (partner 0.25 µM)
Outline: as §1

Veliparib + Phenformin = compound: C[C@]1(c2nc3c(C(N)=O)cccc3[nH]2)CCCN1 [Veliparib] + N=C(N)NC(=N)NCCc1ccccc1 [Phenformin] (partner 250 µM)
Outline: as §1

[2] = compound: COC1=CC=C(C=C1)CN2C=CC3=C2C=C(C=C3)C(=O)NO + Cc1nc(Nc2ncc(C(=O)Nc3c(C)cccc3Cl)s2)cc(N2CCN(CCO)CC2)n1 [Dasatinib] (partner 0.075 µM)
Outline: as §1

Row | Cell Line | relative viability ([1]; first compound 0.253 µM) | relative viability ([1]; first compound 0.8 µM) | relative viability ([1]; first compound 2.53 µM) | relative viability ([1]; first compound 8 µM) | relative viability (Veliparib + Foretinib; first compound 0.02 µM) | relative viability (Veliparib + Foretinib; first compound 0.06325 µM) | relative viability (Veliparib + Foretinib; first compound 0.2 µM) | relative viability (Veliparib + Foretinib; first compound 0.6325 µM) | relative viability (Veliparib + Foretinib; first compound 2 µM) | relative viability (Veliparib + Phenformin; first compound 0.02 µM) | relative viability (Veliparib + Phenformin; first compound 0.06325 µM) | relative viability (Veliparib + Phenformin; first compound 0.2 µM) | relative viability (Veliparib + Phenformin; first compound 0.6325 µM) | relative viability (Veliparib + Phenformin; first compound 2 µM) | relative viability ([2]; first compound 0.08 µM) | relative viability ([2]; first compound 0.253 µM) | relative viability ([2]; first compound 0.8 µM) | relative viability ([2]; first compound 2.53 µM) | relative viability ([2]; first compound 8 µM) | relative viability ([1]; first compound 0.08 µM)
1 | HCC-366 | 0.435 | 0.384 | 0.587 | 0.406 | 0.987 | 0.813 | 0.891 | 0.809 | 0.934 | 0.582 | 0.578 | 0.576 | 0.522 | 0.636 | 0.483 | 0.639 | 0.658 | 0.526 | 0.574 | –
2 | HCC-827 | 0.947 | 1.01 | 0.995 | 0.969 | 1.08 | 1.01 | 0.984 | 1.03 | 1.02 | 0.357 | 0.396 | 0.43 | 0.368 | 0.387 | 0.429 | 0.395 | 0.277 | 0.297 | 0.275 | 0.975
3 | HOP-62 | 0.996 | 0.985 | 0.932 | 0.947 | 1.17 | 0.983 | 0.99 | 1.13 | 1.22 | 0.514 | 0.61 | 0.61 | 0.613 | 0.723 | 0.601 | 0.72 | 0.658 | 0.66 | 0.529 | 0.71
4 | IA-LM | 0.743 | 0.732 | 0.852 | 0.776 | 1.3 | 1.21 | 1.2 | 1.16 | 1.12 | – | – | – | – | – | – | – | – | – | – | 0.609
5 | LC-2-ad | 0.861 | 0.833 | 0.973 | 0.877 | – | 0.894 | 0.903 | 0.837 | 0.939 | – | 0.551 | 0.631 | 0.589 | 0.472 | 0.407 | 0.633 | 0.582 | 0.677 | 0.349 | 0.857
6 | LCLC-97TM1 | 0.242 | 0.242 | 0.255 | 0.233 | 0.875 | 0.863 | 0.862 | 0.939 | 0.989 | 0.428 | 0.435 | 0.439 | 0.428 | 0.499 | 0.294 | 0.667 | 0.938 | 0.801 | 0.721 | –
7 | LCLC-103H | 0.992 | 0.954 | 1.03 | 0.855 | 0.712 | 0.711 | 0.95 | 0.701 | 0.767 | 0.328 | 0.353 | 0.341 | 0.325 | 0.327 | 0.553 | 0.506 | 0.62 | 0.539 | 0.392 | 0.998
8 | LK-2 | 1.11 | 0.896 | 1.13 | 0.907 | – | 1.26 | 1.32 | 1.13 | 1.15 | – | 0.516 | 0.594 | 0.543 | 0.481 | – | 0.358 | 0.335 | 0.298 | 0.293 | –
9 | LOU-NH91 | 0.71 | 0.769 | 0.731 | 0.69 | 0.9 | 0.889 | 0.977 | 0.924 | 0.97 | 0.604 | 0.457 | 0.694 | 0.639 | 0.682 | 0.516 | 0.532 | 0.54 | 0.593 | 0.523 | 0.635
10 | LU99A | 0.552 | 0.624 | 0.605 | 0.479 | 0.75 | 0.744 | 0.752 | 0.663 | 0.721 | 0.928 | 0.838 | 0.612 | 0.75 | 0.976 | – | 0.606 | 0.649 | 0.711 | 0.439 | –
11 | LXF-289 | 1.03 | 1.12 | 1.05 | 1.01 | 0.986 | 0.956 | 0.957 | 0.984 | 0.962 | 0.521 | 0.52 | 0.533 | 0.499 | 0.539 | – | 0.202 | 0.237 | 0.246 | 0.181 | 0.394
12 | NCI-H23 | 0.834 | 0.643 | 0.737 | 0.756 | 1.08 | 0.882 | 1.01 | 0.935 | 1.08 | 0.851 | 0.73 | 0.762 | 0.756 | 0.833 | 0.877 | 0.775 | 0.801 | 0.784 | 0.637 | 0.535
13 | NCI-H522 | – | – | – | – | – | – | – | – | – | 0.683 | 0.664 | 0.667 | 0.583 | 0.802 | – | 0.904 | 1.12 | 0.781 | 0.765 | –
14 | NCI-H1299 | 1.05 | 1.05 | 1.08 | 1.04 | 1.16 | 1.04 | 1.05 | 1.04 | 1.08 | – | – | – | – | – | – | – | – | – | – | 1.09
15 | NCI-H1623 | – | – | – | – | 0.639 | 0.796 | 0.855 | 0.811 | 0.716 | – | 0.514 | 0.605 | 0.583 | 0.545 | 0.389 | 0.487 | 0.517 | 0.525 | 0.418 | –
16 | NCI-H1650 | – | – | – | – | – | 0.895 | 1.35 | 0.98 | 1.17 | – | 0.473 | 0.519 | 0.404 | 0.34 | 0.342 | 0.292 | 0.317 | 0.351 | 0.254 | –
17 | NCI-H1703 | 0.324 | 0.328 | 0.344 | 0.381 | – | – | 0.42 | 0.321 | 0.355 | – | – | – | – | – | – | – | – | – | – | 0.337
18 | NCI-H1792 | 0.765 | 0.744 | 0.741 | 0.617 | – | – | – | – | – | 0.212 | 0.213 | 0.398 | 0.328 | 0.247 | 0.705 | 0.841 | 0.749 | 0.726 | 0.715 | 0.663
19 | NCI-H2342 | – | – | – | – | 1.16 | 1.05 | 1.06 | 1.01 | 0.903 | 0.583 | 0.589 | 0.506 | 0.579 | 0.587 | 0.297 | 0.321 | 0.305 | 0.304 | 0.313 | –
20 | SW 900 | – | – | – | – | – | – | 0.905 | 0.781 | 0.945 | – | – | 0.679 | 0.504 | 0.508 | 0.541 | 0.556 | 0.628 | 0.629 | 0.334 | –
